Results: patent US4250329A, “Carbonylation process” (priority 1979, dated 1981)
Values joined by “and” are separate entries in the source; they are usually repeats but may differ in a detail not shown here. Identical values can stand only once. Like-named read-outs stand apart in the source and are kept apart here.

Columns and labels:
[1] = Protocol: This conversion is run at elevated pressures, preferably from 1,500 to 3,000 psi. Reaction temperatures will range from 50° C. to 200° C., with a range of 100° C. to 150° C. preferred. Ratio of H2 to CO used will vary with reaction conditions; preferably a 1 to 1 ratio is maintained. The catalyst concentration will range from 0.01 to 20% based on the weight feed, with 0.05 to 10% preferred.
30 ml. of hexene-1, 20 ml. of benzene, and 0.3 gm. […] The bomb was heated to 140° C. and held until the reaction was complete.

[2] = Carbonylation of methanol to methyl acetate; design: methyl acetate (drawing 15) produced: unit not given here; conditions: for % Conversion (Table II) / % Selectivity (Table II; additional product was dimethyl ether): 1000 psi; for methyl acetate (drawing 17): the values are: methyl acetate volume produced; for methyl acetate (drawing 15) produced / CH3 OH consumed: 20 hour
Protocol: (THF)4 Mg[Co(CO)3 P(C4 H9)3 ]2 +CH3 I catalyst system
Reaction conditions: 175° C., 1000 psi

[3] = Carbonylation of methanol to methyl acetate; conditions: 175° C.
[4] = Hydroformylation of propylene; conditions: 133 °C
From the text: [table 17: the next 25 blocks are its lines as printed, fixed-width]

[5] = 1500 psi 1:1 H2:CO, 140° C., 0.3 gm catalyst
[6] = catalyst 2.0 mmole, CH3I 8.0 mmole, 67 hour, 175° C.
[7] = cocatalyst 8.0 mmole, 19 hr, 1.0 mmole catalyst, 175° C., 1000 psi CO
[8] = cocatalyst 8.0 mmole, 90 hr, 1.0 mmole catalyst, 175° C., 1000 psi CO
[9] = CH3I 1.6 mmole, 18 hr, 175° C., 1000 psi CO, no reaction occurs
[10] = CH3I 4.0 mmole, 18 hr, 175° C., 1000 psi CO
[11] = CH3I 6.0 mmole, 18 hr, 175° C., 1000 psi CO
[12] = CH3I 8.0 mmole, 3.25 hr, 175° C., 4000 psig CO
[13] = CH3I 8.0 mmole, 18 hr, 175° C., 1000 psi CO
[14] = CH3I 12.0 mmole, 18 hr, 175° C., 1000 psi CO
[15] = CH3I 16.0 mmole, 18 hr, 175° C., 1000 psi CO
[16] = CH3I 48.0 mmole, 17 hr, 175° C., 1000 psi CO
[17] = cocatalyst 8.0 mmole, 18 hr, 1.0 mmole catalyst, 175° C., 1000 psi CO
[18] = catalyst 1.0 mmole, CH3I 8.0 mmole, 21 hour, 175° C.

tetrakis tetrahydrofuran adduct of a magnesium-dicobalt hexacarbonyl bismethyldiphenylphosphine complex [(C4 H8 O)4 Mg[Co(CO)3 PCH3 (C6 H5)2]2]
hexene-1 converted to C7 aldehydes and C7 alcohols [1, 5]: 99% | reacted product that was an aldehyde [1, 5]: 87% | conversion of 1-hexene to heptaldehydes ([1]; elevated pressures): > 99% | selectivity, 1-hexene to heptaldehydes ([1]; elevated pressures): 87%

CC(=O)[CH-]C(C)=O.CC(=O)[CH-]C(C)=O.CC(=O)[CH-]C(C)=O.[Co+3] [Co(C5 H7 O2)3]
% Conversion (Table II) [2, 6]: 16% | % Selectivity (Table II; additional product was dimethyl ether) [2, 6]: 23%

CCI [CH3 CH2 I]
% Conversion to Methyl Acetate (Table III) [2, 7]: 20% | % Selectivity to Methyl Acetate (Table III) [2, 7]: 85% | methyl acetate (drawing 17) [2]: 17.5 mL

Ic1ccccc1 [C6 H5 I]
% Conversion to Methyl Acetate (Table III) [2, 8]: 25% | % Selectivity to Methyl Acetate (Table III) [2, 8]: 52% | methyl acetate (drawing 17) ([2]; cocatalyst 8.0 mmole, 1000 psi CO, 175° C., 90 hours): 22.3 mL

[I-].[Li+] [LiI]
% Conversion to Methyl Acetate (Table III) [2]: 0.6% | % Selectivity to Methyl Acetate (Table III) [2]: 100% | methyl acetate (drawing 17) [2]: 1 mL

CI [CH3 I, methyl iodide]
% Conversion to Methyl Acetate (Table IV) ([3]; CH3I 16.0 mmole, 4.25 hr, 4000 psig CO): 25% | % Conversion to Methyl Acetate (Table III) ([3]; cocatalyst 8.0 mmole, 3.25 hr, 1.0 mmole catalyst, 4000 psi CO): 29% | % Selectivity to Methyl Acetate (Table III) ([3]; cocatalyst 16.0 mmole, 4.25 hr, 1.0 mmole catalyst, 4000 psi CO): 74% | % Conversion to Methyl Acetate (Table IV) [2, 9]: 0.0% | % Selectivity to Methyl Acetate (Table IV) [2, 9]: 0.0% | methyl acetate (drawing 15) produced ([2]; CH3I 1.6 mmole, 1.0 mmole catalyst, 1000 psi CO, 175° C.): 0.5 | CH3 OH consumed ([2]; CH3I 1.6 mmole, 1000 psi CO, 175° C.): 1.2 mL | % Conversion to Methyl Acetate (Table IV) [2, 10]: 22% | % Selectivity to Methyl Acetate (Table IV) [2, 10]: 100% | % Conversion to Methyl Acetate (Table IV) [2, 11]: 24% | % Selectivity to Methyl Acetate (Table IV) [2, 11]: 100% | % Conversion to Methyl Acetate (Table IV) [2, 12]: 29% | % Selectivity to Methyl Acetate (Table IV) [2, 12]: 97% | % Conversion to Methyl Acetate (Table IV) [2, 13]: 24% | % Selectivity to Methyl Acetate (Table IV) [2, 13]: 85% | methyl acetate (drawing 15) produced ([2]; CH3I 8.0 mmole, 1.0 mmole catalyst, 1000 psi CO, 175° C.): 22.4 | CH3 OH consumed ([2]; CH3I 8.0 mmole, 1000 psi CO, 175° C.): 30.0 mL | % Conversion to Methyl Acetate (Table IV) [2, 14]: 5.4% | % Selectivity to Methyl Acetate (Table IV) [2, 14]: 15% | % Selectivity to Methyl Acetate (Table IV) ([2]; CH3I 16.0 mmole, 4.25 hr, 175° C., 4000 psig CO): 74% | % Conversion to Methyl Acetate (Table IV) [2, 15]: 4.5% | % Selectivity to Methyl Acetate (Table IV) [2, 15]: 12% | methyl acetate (drawing 15) produced ([2]; CH3I 16.0 mmole, 1.0 mmole catalyst, 1000 psi CO, 175° C.): 4.5 | CH3 OH consumed ([2]; CH3I 16.0 mmole, 1000 psi CO, 175° C., CH3OH is dehydrated to CH3OCH3): 45.0 mL | % Conversion to Methyl Acetate (Table IV) [2, 16]: 0.0% | % Selectivity to Methyl Acetate (Table IV) [2, 16]: 0.0% | conversion to CH3 OCH3 [2, 16]: 100% | methyl acetate (drawing 15) produced ([2]; CH3I 48.0 mmole, 1.0 mmole catalyst, 1000 psi CO, 175° C.): 1.2 | CH3 OH consumed ([2]; CH3I 48.0 mmole, 1000 psi CO, 175° C., CH3OH is dehydrated to CH3OCH3): 90. ml | % Selectivity to Methyl Acetate (Table III) ([2]; cocatalyst 8.0 mmole, 3.25 hr, 1.0 mmole catalyst, 175° C., 4000 psi CO): 97% | % Conversion to Methyl Acetate (Table III) [2, 17]: 24% | % Selectivity to Methyl Acetate (Table III) [2, 17]: 85% | % Conversion to Methyl Acetate (Table III) ([2]; cocatalyst 16.0 mmole, 4.25 hr, 1.0 mmole catalyst, 175° C., 4000 psi CO): 25% | methyl acetate (drawing 17) [2]: 19.8 mL and 29.6 mL and 21.4 mL

[C-]#[O+].[Cl-].[Rh].c1ccc(P(c2ccccc2)c2ccccc2)cc1.c1ccc(P(c2ccccc2)c2ccccc2)cc1 [((C6 H5)3 P)2 Rh(CO)Cl]
t1/2 ([4]; 1n 2/k): 9.32 min | k (pseudo 1st order reaction rate constant) ([4]; 1000 psig CO/H2 50/50): 0.0744 min⁻¹ | n-C4 H8 O (percent straight chain isomer) ([4]; 1000 psig CO/H2 50/50, benzene, 0.5 mmoles catalyst based on Rh): 56%

[C-]#[O+].[C-]#[O+].[C-]#[O+].[C-]#[O+].[C-]#[O+].[C-]#[O+].[C-]#[O+].[C-]#[O+].[Co].[Co] [Co2 (CO)8]
% Conversion (Table II) [2, 18]: 3.5% | % Selectivity (Table II; additional product was dimethyl ether) [2, 18]: 6.4%

I [HI]
% Conversion to Methyl Acetate (Table III) [2]: 8% | % Selectivity to Methyl Acetate (Table III) [2]: 47% | methyl acetate (drawing 17) [2]: 6.6 mL

CBr [CH3 Br]
activity as cocatalyst [2]: inactive
